Measurements as given in PMC6464118 (European journal of medicinal chemistry, 2019).

test system: HIV-1 NL4-3 Nanoluc-sec virus; assay: not given; format: cell-based; details: CC50 (MT4) / EC50 (NL4-3)

**Q.** For `CC(=O)O[C@H]1[C@@H](OC(C)=O)[C@@]2(C)[C@@H]3CC[C@H]4C(C)(C)[C@@H](OC(=O)CC(C)C(=O)O)CC[C@@]45C[C@@]35CC[C@@]23CO[C@@]2(C(C)(C)O)CC[C@](C)(O2)[C@@H]13` (stereo partly drawn) [Compound 13f, (RS-3′-20S, 24S)-15β,16β-Diacetoxy-18,24;20,24-diepoxy-9,19-cyclolanostane-3β, 25-diol 3-O-3′-methylsuccinate], which “TI: CC50/EC50” value is on record?
**A.** Its value is > 18.0.

**Q.** For `CC(=O)O[C@H]1[C@@H](OC(C)=O)[C@@]2(C)[C@@H]3CC[C@H]4C(C)(C)[C@@H](OC(=O)COCC(=O)O)CC[C@@]45C[C@@]35CC[C@@]23CO[C@@]2(C(C)(C)O)CC[C@](C)(O2)[C@@H]13` [Compound 13m, (20S,24S)-15β, 16β-Diacetoxy-18,24;20,24-diepoxy-9,19-cyclolanostane-3β,25-diol 3-O-diglycolate], which “TI: CC50/EC50” value is on record?
**A.** Its value is > 41.7.

**Q.** How did the “TI: CC50/EC50” value turn out when `CC(=O)O[C@H]1[C@H](O)[C@H]([C@]2(C)CC[C@@H](C(C)(C)O)O2)[C@@]2(C)CC[C@@]34C[C@@]35CC[C@H](O[C@@H]3OC[C@@H](O)[C@H](O)[C@H]3O)C(C)(C)[C@@H]5CC[C@H]4[C@]12C` [Compound 4, beesioside M] was run?
**A.** The value was > 8.2.

**Q.** `CC(=O)O[C@H]1[C@@H](OC(C)=O)[C@@]2(C)[C@@H]3CC[C@H]4C(C)(C)[C@@H](OC(=O)CC5(CC(=O)O)CCCC5)CC[C@@]45C[C@@]35CC[C@@]23CO[C@@]2(C(C)(C)O)CC[C@](C)(O2)[C@@H]13` [Compound 13l, (20S,24S)-15β,16β-Diacetoxy-18,24;20,24-diepoxy-9,19-cyclolanostane-3β,25-diol 3-O-3′,3′-tetramethyleneglutarate] was tested. Which “TI: CC50/EC50” value did it give?
**A.** The value was > 12.6.

**Q.** How did the “TI: CC50/EC50” value turn out when `CC(=O)O[C@H]1[C@@H](OC(C)=O)[C@@]2(C)[C@@H]3CC[C@H]4C(C)(C)[C@@H](OC(C)=O)CC[C@@]45C[C@@]35CC[C@@]23CO[C@@]2(C(C)(C)O)CC[C@](C)(O2)[C@@H]13` [Compound 13a, (20S, 24S)-15β, 16β-Diacetoxy-18,24;20,24-diepoxy-9,19-cyclolanostane-25-hydroxy-3β-yl acetate] was run?
**A.** The value was > 16.4.

**Q.** With `CC1(C)[C@@H](O[C@@H]2OC[C@@H](O)[C@H](O)[C@H]2O)CC[C@]23C[C@]24CC[C@]25CO[C@@]6(C(C)(C)O)CC[C@](C)(O6)[C@H]2[C@@H](O)[C@@H](O)[C@@]5(C)[C@@H]4CC[C@@H]13` [Compound 1a, (20S,24S)-18,24;20,24-Diepoxy-9,19-cyclolanostane-3β, 15β, 16β,25-tetraol 3-O-β-D-xylopyrano-side] as the compound, how does the “TI: CC50/EC50” value read?
**A.** Its value is > 5.2.

**Q.** How did the “TI: CC50/EC50” value turn out when `CC(=O)O[C@H]1[C@@H](OC(C)=O)[C@@]2(C)[C@@H]3CC[C@H]4C(C)(C)[C@@H](O[C@@H]5OC[C@@H](O)[C@H](O)[C@H]5O)CC[C@@]45C[C@@]35CC[C@@]23CO[C@@]2(C(C)(C)O)CC[C@](C)(O2)[C@@H]13` [Compound 1, beesioside I] was run?
**A.** The value was > 17.2.

**Q.** Which “TI: CC50/EC50” value does the source give for `CC(=O)O[C@H]1[C@@H](OC(C)=O)[C@@]2(C)[C@@H]3CC[C@H]4C(C)(C)[C@@H](OC(=O)CCC(=O)O)CC[C@@]45C[C@@]35CC[C@@]23CO[C@@]2(C(C)(C)O)CC[C@](C)(O2)[C@@H]13` [Compound 13e, (20S,24S)-15β,16β-Diacetoxy-18,24;20,24-diepoxy-9,19-cyclolanostane-3β,25-diol 3-O-succinate] here?
**A.** Its value is > 5.2.

**Q.** `CC(=O)O[C@H]1[C@@H](OC(C)=O)[C@@]2(C)[C@@H]3CC[C@H]4C(C)(C)[C@@H](OC(=O)CCC(C)(C)C(=O)O)CC[C@@]45C[C@@]35CC[C@@]23CO[C@@]2(C(C)(C)O)CC[C@](C)(O2)[C@@H]13` [Compound 13j, (20S, 24S)-15β,16β-Diacetoxy-18,24;20,24-diepoxy-9,19-cyclolanostane-3β, 25-diol 3-O-4',4'-dimethylglutarate] was tested. Which “TI: CC50/EC50” value did it give?
**A.** Its value is > 104.

**Q.** With `CC(=O)O[C@H]1[C@@H](O)[C@@]2(C)[C@@H]3CC[C@H]4C(C)(C)[C@@H](O[C@@H]5OC[C@@H](O)[C@H](O)[C@H]5O)CC[C@@]45C[C@@]35CC[C@@]23CO[C@@]2(C(C)(C)O)CC[C@](C)(O2)[C@@H]13` [Compound 2, beesioside K] as the compound, how does the “TI: CC50/EC50” value read?
**A.** The value was > 8.6.

same assay, conditions: HIV-1 NL4-3 replication in MT4 cells

**Q.** For `CC1(C)[C@@H](O)CC[C@]23C[C@]24CC[C@]25CO[C@@]6(C(C)(C)O)CC[C@](C)(O6)[C@H]2[C@@H](O)[C@@H](O)[C@@]5(C)[C@@H]4CC[C@@H]13` [Compound 13d, (20S, 24S)-18,24;20,24-Diepoxy-9,19-cyclolanostane-3β, 15β, 16β, 25-tetraol], which “anti-HIV activity in words” value is on record?
**A.** Its value is “inactive”.

**Q.** `CC(=O)O[C@H]1[C@@H](OC(C)=O)[C@@]2(C)[C@@H]3CC[C@H]4C(C)(C)[C@@H](O[C@@H]5OC[C@@H](O)[C@H](O)[C@H]5O)CC[C@@]45C[C@@]35CC[C@@]23CO[C@@](C)(CCC(=O)C(C)(C)O)[C@@H]13` [Compound 12, soulieoside P] was tested. Which “anti-HIV activity in words” value did it give?
**A.** Its value is “inactive”.

**Q.** `CC(=O)O[C@H]1[C@@H]2O[C@@]3(C(C)(C)O)CC[C@](C)(O3)[C@@H]2[C@@]2(CO)CC[C@@]34C[C@@]35CC[C@H](O[C@@H]3OC[C@@H](O)[C@H](O)[C@H]3O)C(C)(C)[C@@H]5CC[C@H]4[C@]12C` [Compound 9, (20S,24S)-15α-acetoxy-16β,24;20,24-diepoxy-3β-(β-D-xylopyranosyloxy)-9,19-cyclolanostane-18,25-diol] was tested. Which “anti-HIV activity in words” value did it give?
**A.** The value was “inactive”.

**Q.** How did the “anti-HIV activity in words” value turn out when `CC1(C)[C@@H](O[C@@H]2OC[C@@H](O)[C@H](O)[C@H]2O)CC[C@]23C[C@]24CC[C@]25CO[C@@]6(C(C)(C)O)CC[C@](C)(O6)[C@H]2[C@@H](O)[C@@H](O)[C@@]5(C)[C@@H]4CC[C@@H]13` [Compound 1a, (20S,24S)-18,24;20,24-Diepoxy-9,19-cyclolanostane-3β, 15β, 16β,25-tetraol 3-O-β-D-xylopyrano-side] was run?
**A.** The value was “less potent”.

**Q.** Which “anti-HIV activity in words” value does the source give for `CC(C)(O)[C@@H]1CC[C@@](C)([C@H]2[C@@H](O)[C@H](O)[C@@]3(C)[C@@H]4[C@@H](O)C[C@H]5C(C)(C)[C@@H](O[C@@H]6OC[C@@H](O)[C@H](O)[C@H]6O)CC[C@@]56C[C@@]46CC[C@]23C)O1` [Compound 5, soulieoside N] here?
**A.** Its value is “inactive”.

**Q.** For `CC(=O)O[C@H]1[C@@H](OC(C)=O)[C@@]2(C)[C@@H]3CC[C@H]4C(C)(C)[C@@H](O)CC[C@@]45C[C@@]35CC[C@@]23CO[C@@]2(C(C)(C)O)CC[C@](C)(O2)[C@@H]13` [Compound 13, (20S,24S)-15β, 16β-Diacetoxy-18,24;20,24-diepoxy-9,19-cyclolanostane-3β,25-diol], which “anti-HIV activity in words” value is on record?
**A.** The value was “inactive”.

**Q.** How did the “anti-HIV activity in words” value turn out when `CC(=O)O[C@H]1[C@H](O)[C@@]2(C)[C@@H]3CC[C@H]4C(C)(C)[C@@H](O[C@@H]5OC[C@@H](O)[C@H](O)[C@H]5O)CC[C@@]45C[C@@]35CC[C@@]23CO[C@@](C)(CCC(=O)C(C)(C)O)[C@@H]13` [Compound 11, soulieoside O] was run?
**A.** Its value is “inactive”.

same assay, conditions: relative to compound 1

**Q.** Which “fold more potent than 1 (anti-HIV activity)” value does the source give for `CC(=O)O[C@H]1[C@@H](OC(C)=O)[C@@]2(C)[C@@H]3CC[C@H]4C(C)(C)[C@@H](OC(=O)CC(C)(C)C(=O)O)CC[C@@]45C[C@@]35CC[C@@]23CO[C@@]2(C(C)(C)O)CC[C@](C)(O2)[C@@H]13` [Compound 13g, (20S, 24S)-15β,16β-Diacetoxy-18,24;20,24-diepoxy-9,19-cyclolanostane-3β, 25-diol 3-O-3′,3′-dimethylsuccinate] here?
**A.** The value was “approximately 100 fold”.

test system: bevirimat-resistant HIV viruses NL4-3-V370A; assay: Activity against bevirimat-resistant HIV virus NL4-3-V370A; format: cell-based; details: not given

**Q.** How did the “activity against bevirimat-resistant HIV viruses NL4-3-V370A” value turn out when `CC(=O)O[C@H]1[C@@H](OC(C)=O)[C@@]2(C)[C@@H]3CC[C@H]4C(C)(C)[C@@H](OC(=O)CC(C)(C)C(=O)O)CC[C@@]45C[C@@]35CC[C@@]23CO[C@@]2(C(C)(C)O)CC[C@](C)(O2)[C@@H]13` [Compound 13g, (20S, 24S)-15β,16β-Diacetoxy-18,24;20,24-diepoxy-9,19-cyclolanostane-3β, 25-diol 3-O-3′,3′-dimethylsuccinate] was run?
**A.** Its value is “no significant effects”.
